Data from PMC4352194, “Physicochemical and Biological Properties of Oxovanadium(IV), Cobalt(II) and Nickel(II) Complexes with Oxydiacetate Anions” (Biological Trace Element Research, 2014).

How the values were obtained:
[1] = Potentiometric titration: stability constants of the complexes; format: physicochemical
Protocol: Potentiometric titrations were performed in a 30-mL thermostated (298.15 ± 0.10 K) cell using the Cerko Lab System microtitration unit fitted with a 5-mL Hamilton’s syringe, a pH combined electrode (Schott–BlueLine 16 pH type) and a self-made measuring cell equipped with a magnetic stirrer. The temperature was controlled using the Lauda E100 circulation thermostat. In aqueous solutions, the electrode was calibrated according to IUPAC recommendations. In binary systems (10–50 % v/v DMSO:H2O), the electrode calibration was performed by the Gran’s method using the GLEE program. For this purpose, the HClO4 solution was titrated with tetrabutylammonium hydroxide (Bu4NOH) solution both at the same mole fraction of organic solvent (10–50 (v/v%) DMSO). The syringe was calibrated by a weight method. The double distilled water of conductivity approximately 0.18 μS/cm was used throughout for the preparation of aqueous solutions. Other reagents used in the experiments were purchased from Sigma-Aldrich. They were as follows: VOSO4 (≥99.99 % trace metals basis), Co(NO3)2·6H2O (ACS reagent, ≥99 %), Ni(NO3)2·6H2O (99.999 %) and 2,2′-oxydiacetic acid (H2ODA, 98 %). All the solutions were prepared immediately before measurements. The compositions of the titrand solutions used in the experiments were as follows: (a) 2 mM Ni^2+ (Co^2+ or VO^2+), 5 mM H2ODA, 5 mM HClO4, (b) 2.5 mM H2ODA (for binary systems). The solutions (Vo = 5.0 mL) were potentiometrically titrated with the standardized 0.098 M NaOH solution or with the standardized 0.025 M Bu4NOH solution (in binary systems) in the pH range from 2.5 to 11.0. The titrant was added to the titrand in increments of 0.01 mL, with a pause of 60 s. Each titration was repeated at least three times in order to check the reproducibility of the data. The stability constants of the complexes were determined using the Hyperquad2008 program. The concentration distribution of various complex species existing in the solution as a function of pH was obtained using the HySS program.
The equilibrium constants defined by Eqs. (1) and (2):1 pM+qL+rH=MpLqHr 2 βpqr=MpLqHr/M^pL^qH^r (where M is VO^2+, Co^2+ or Ni^2+, L denotes the oxydiacetate ion, H is the proton and p, q, r are stoichiometric coefficients for the reaction) were refined by least-squares calculations using the Hyperquad2008 (version 5.2.19) computer program. For the oxovanadium(IV) system, the formation of the hydroxo complexes of VO(IV) were taken into account in the calculations of the stability constants. The following formation constants were taken from the literature and were fixed: logβ 10–1 = −5.94, logβ 20–2 = −6.95 and logβ 10–3 = −18. The equilibrium models presented in Table 2 have given the best fitting of the calculated data to the experimental ones.

[2] = Scavenging of superoxide radicals (NBT method); conditions: complex concentration causing 50 % reduction of superoxide ion referred to that of ascorbic acid; NBT assay in DMSO
Protocol: Nitro blue tetrazolium (NBT, 98 % purity), KO2 (96 % purity) and 18-Crown-6 (99 % purity) were purchased from Sigma-Aldrich. The superoxide scavenging activity of the complexes was determined by using their ability to inhibit the reduction of nitro blue tetrazolium (NBT) by superoxide ions. UV–vis measurements were carried out by using the Perkin-Elmer Lambda 650 spectrophotometer equipped with the temperature control—Peltier system with a scan accuracy of 1 and 1-nm slit width. The measurements were carried out in DMSO solution at 288.15 K according to the method described in the literature. Superoxide free radicals were generated by dissolving 6.5-mg portion of KO2 powder into DMSO (50 mL) together with 90 mg of 18-crown-6-ether. NBT (10 mg) was dissolved directly in DMSO (10 mL). In general, 1.5 mL of DMSO/KO2/18-crown-6 mixture was added to 0.5 mL of the sample to be assayed. The mixture was kept for 20 min and then 0.1 mL of NBT solution was added while stirring. The absorbance was monitored spectrophotometrically at 560 nm. The control test was carried out under the same experimental condition under assumption that KO2 and 18-crown-6 were absent in DMSO.
The ability of the complexes to scavenge superoxide anion radicals was evaluated by the NBT assay. The measurements were carried out in the DMSO solution in which KO2 was dissolved via the use of a crown ether to generate superoxide radicals (see Material and Methods).
The antioxidant activities of the complexes towards O2 ^− were compared to each other. Based on the obtained relationships (Fig. 3), the complex concentrations causing the 50 % reduction of the concentration of the superoxide ion were calculated. The obtained values were referred to the concentration of ascorbic acid causing the same O2 ^− reduction effect measured at the same experimental conditions. In this way, ascorbic acid equivalents of the complexes were obtained. They are equal 0.35, 1.11 and 4.50 for VO(ODA), Ni(ODA) and Co(ODA), respectively.

[3] = tested on: Human Dermal Fibroblasts adult (HDFa) cell line; test: Cytoprotective activity against H2O2 oxidative damage (MTT); format: cell-based
Protocol: The Human Dermal Fibroblasts adult (HDFa) cell line (Cascade Biologics) was used in all experiments. Unless otherwise specified, cells were grown in the Dulbecco’s modified Eagle’s medium (DMEM) supplemented with 10 % fetal bovine serum (FBS) and 1× antibiotic and antimycotic solutions (all purchased from Sigma) and incubated at 310.15 K in the humidified 5 % CO2 atmosphere. Cells were plated at 2 × 10^3 cells per well of 96-well tissue culture plate. After an overnight incubation, cells were washed with DMEM without FBS and next treated with 1 mM hydrogen peroxide (H2O2) (Sigma) together with different concentrations of tested complex compounds or with 1 mM H2O2 alone to induce the oxidative damage to cells resulting in the necrotic death. Mixtures were prepared in the growth medium (DMEM) without FBS. Cells treated with the growth medium only were used as a control of normal viability. After 1-h incubation at 310.15 K, the medium was removed and cells were washed with the growth medium containing 10 % FBS to stop the H2O2 activity. Next, either the cell viability was assessed using the MTT solution (see previous paragraph) or additional incubation of cells in DMEM containing 10 % FBS for another 48 h was performed and then cells were tested for the viability (the MTT assay). The cytoprotective activity of complex compounds against the oxidative damage was calculated relatively to untreated control cells, not exposed to H2O2.

[4] = PT, 298.15 K, aqueous, hydroxo species
[5] = 1 mM H2O2 with complex 1 h, then additional 48-h incubation in growth medium
[6] = 1 mM H2O2 with complex, 1-h exposure

| SMILES | logβ 110 (species ML), stability constant ([1]; PT, 298.15 K, aqueous) | logβ 11–2 (species MLH−2) [1, 4] | ascorbic acid equivalents [2] | viability of cells ([3]; 1 mM H2O2 together with 500 μM complex, 1 h) | cytoprotective activity against oxidative damage [3, 5] | cytoprotective activity against oxidative damage [3, 6] | logβ 22–2 (species M2L2H−2) [1, 4] | pH at which hydroxo species predominate over the complex ([1]; species distribution M:L = 1:1 calculated from stability constants) |
| --- | --- | --- | --- | --- | --- | --- | --- | --- |
| O.O.O.O=C(O)COCC(=O)O.[Co] [Co(ODA), [Co(ODA)(H2O)2]·H2O] | 3.45 (±0.11) | −14.88 (±0.14) | 4.50 | ca. 100% | grow and proliferate at similar levels to untreated control cells | highest dose- and time-dependent protective effect |  |  |
| O.O.O.O.O.O.O.O.O.O=C([O-])COCC(=O)[O-].O=C([O-])COCC(=O)[O-].[Ni+2].[Ni+2] [Ni(ODA), [Ni(ODA)(H2O)3]·1.5H2O] | 3.52 (±0.02) | −14.17 (±0.06) | 1.11 |  | no influence on the viability of cells | no influence on the viability of cells |  |  |
| O.O.O=C([O-])COCC(=O)[O-].[O]=[V+2] [VO(ODA), [VO(ODA)(H2O)2]] | 5.08 (±0.04) | −6.45 (±0.04) | 0.35 |  | induces the cell death | to some extent, exhibits the cytoprotective activity | 1.65 (±0.15) | > 5.5 |
